Results on ten molecules are retold here after patent US11878015B2, “Piperidine-substituted Mnk inhibitors and methods related thereto” (eFFECTOR Therapeutics Inc., priority 2017, dated 2024).

A short description of series [1]: High throughput thermodynamic solubility procedure. Type of series: physicochemical. Particulars: for solubility in fasted state simulated gastric fluid (FaSSGF), in words: pH value of 1.6; for solubility at 18 h: thermodynamic from solid, 18 hours incubation, theoretical maximum 10 mM. As to the method:
In a 96-well plate, 10 mM DMSO stocks (50-100 uL) of each compound were dried under heated nitrogen flow using a SPE-96 plate dryer (upper flow rate=50 L/min, temperature=60° C., lower flow rate=20 L/min, temperature=80° C.). […] Compounds prepared as the free base were assessed in conditions with and without one equivalent of TFA added. The theoretical maximum concentrations of the aqueous solutions were 10 mM. Each well was capped and incubated for a period of 18 hours at room temperature or 37° C. Mixing of the solutions during the incubation period was performed by either shaking the plate at 750 rpm or adding StirStix (stainless steel capillaries) and agitating the mixture using a rotary magnetic tumble stirrer. After the incubation period, aliquots from each well were filtered. Solubility of all samples were quantified following comparison to standards of known concentration by HPLC-UV.

The subject of a further series is PD-1. Kind of series: PD-1 (CD279) expression on PHA/PMA-activated Jurkat T cells, flow cytometry. Type of series: cell-based. Particulars: Homo sapiens, percentage of inhibition of PD-1 positive cells at 10 μM, 48 hours. As to the method: To examine the effect of MNK inhibitors on PD-1 expression, Jurkat cells (Clone E6.1, ATCC, transformed T cells) were used, which express PD-1 when activated through T cell receptor (TCR) signaling. Briefly, Jurkat cells were grown in 1×RPMI with 1×Pen/Strep, and 10% FBS, then about 3×10^6 Jurkat cells were activated in presence of 1 μg/mL PHA (Sigma) and 50 ng/mL PMA (Sigma). Test Cells were treated simultaneously with various concentrations of an MNK inhibitor (0, 0.01, 0.1, 1, 3 and 10 μM). After 48 hours, culture supernatants were harvested and examined via sandwich ELISA for the presence of IL-2 using human IL-2 ELISA DuoSet (R&D Systems, Minneapolis, Minn.). The level of PD-1 on Jurkat cells was examined by incubating with human FcR block, then contacted with allophycocyanin (APC) conjugated anti-PD-1 antibody (5 μl per 100 μl volume of test, Biolegend, San Diego, CA) for 25 minutes at 4° C., without washing the cells, fixable dead cell stain (1:10,000; BD Biosciences, San Jose, CA) was added and incubated further for 10 minutes at 4° C. Cells were washed two times with flow buffer, and finally cells were fixed with fixation buffer for 15 minutes at 4° C. After fixation, cells were washed twice with flow buffer and re-suspended in flow buffer and assessed for fluorescence using BD Accuri C6 flow cytometer. Data were analyzed using the C6 cytometer software (BD Biosciences, San Jose, CA) or Attune Nxt Cytometer (Invitrogen, Carlsbad, CA).
Activation of Jurkat T cells with PHA and PMA induced the expression of PD-1 on the cell surface of about 25-30% of the stimulated Jurkat cells as compared to uninduced cells (Unstim) and induced a 1,000-fold increase in IL-2 cytokine production, respectively. […] Lastly, MNK inhibition by various different MNK inhibitors had no effect on cell viability. […] To this end, percentage of inhibition of PD-1 positive cells (10 μM) of more than 50% are labelled as “+++”, from 10% to 50% are labelled as “++”, and less than 10% are labelled as “+” (NA means “not available”).
Background: In flow cytometry, cells or beads pass a laser one at a time.

In another series the test system is Phosphorylated eIF4E. Kind of series: peIF4E signaling cellular assay (CisBio peIF4E HTRF). Type of series: cell-based. Particulars: 2 hrs incubation at 37° C., 12-point curve 20 μM to 0.1 nM; read-out: pEI4IE signaling activity. How it is done: Phosphorylated eIF4E is assayed using the CisBio peIF4E HTRF® assay kit (CisBio, catalogue No. 64EF4PEG). Cells are plated in 96-well tissue-culture treated plate in appropriate growth medium (90 μL). Compounds (10×) are diluted using 3-fold serial dilutions in cell culture medium and added to cells. Plates are incubated for 2 hrs at 37° C. The cell supernatant is carefully removed either by aspirating supernatant or by flicking the plate. Immediately 50 μL of supplemented lysis buffer (1×) is added and incubated for at least 30 minutes at room temperature under shaking. After homogenization by pipeting up and down, 16 μL of cell lysate is transferred from the 96-well cell-culture plate to a 384-well small volume white plate. 4 μL of premixed antibody solutions (vol/vol) is prepared in the detection buffer and added. The plate is covered with a plate sealer and incubated overnight at room temperature. The fluorescence emissions at two different wavelengths are read (665 nm and 620 nm) on a Wallac Victor2. Emission ratios are converted into percent inhibitions and imported into GraphPad Prism software. […] IC50 values are determined using a nonlinear regression model available in GraphPad Prism 5.
To this end, IC50 values of less than 0.001 μM are labelled as “+++”, from 0.001 to 0.01 μM are labelled as “++”, and greater than 0.01 μM are labelled as “+” (NA means “not available”).

Setting [2] is: Fasted-State Simulated Intestinal Fluid (FaSSIF), pH 6.5, fassif, Fasted-State Simulated Intestinal Fluid, read-out: Aqueous Solubility FaSSIF (pH 6.5).
Setting [3] is: deionized water, read-out: Aqueous Solubility DI H2O.

SMILES strings stand for the structures. Like-named read-outs stand apart in the source and are kept apart here.

Consider `Cc1cc(Nc2ncnc(N)c2C)c(=O)n2c1C(=O)N[C@@]21CCCN(C)C1` (stereo in doubt) [Compound 1Fb, (S)-6-((6-amino-5-methylpyrimidin-4-yl)amino)-1′,8-dimethyl-2H-spiro[imidazo[1,5-a]pyridine-3,3′-piperidine]-1,5-dione], for which the “solubility in fasted state simulated gastric fluid (FaSSGF), in words” value (“solubility … in words” below) in series [1] is “excellent solubility”. The solubility (in general, the dissolved amount per volume that the medium holds) at 18 h is 88 µg/mL in series [1] (setting [2]) and > 1850 µg/mL in series [1] (setting [3]). The inhibition (commonly the relative decrease from the control value, in per cent) at 10 µM in the series with PD-1 fell in the range of 10 to 50%. For the same molecule, the IC50 with Phosphorylated eIF4E lay in the range of 1 to 10 nM.

Turning to `Cc1cc(Nc2ncnc(N)c2C)c(=O)n2c1C(=O)NC21CCN(CCC(F)(F)F)CC1` [Compound 3AA], the values for the solubility at 18 h in series [1] (setting [2]) and in series [1] (setting [3]) were 30 µM and 4400 µM, respectively. Besides, in the series on PD-1, the inhibition at 10 µM was < 10%. Moreover, the IC50 with Phosphorylated eIF4E lay within 1 to 10 nM.

As for `Cc1cc(Nc2ncnc(N)c2Cl)c(=O)n2c1C(=O)NC21CCN(CCF)CC1` [Compound 3CC], the solubility at 18 h in series [1] (setting [2]) was 40 µM; in series [1] (setting [3]), 770 µM. For the same molecule, in the series with PD-1, the inhibition at 10 µM lay in the range of 10 to 50%. The IC50 with Phosphorylated eIF4E was in the range of 1 to 10 nM.

In the case of `Cc1cc(Nc2ncnc(N)c2Cl)c(=O)n2c1C(=O)NC21CCCNC1` (stereo not drawn) [Compound 3C], the solubility at 18 h was 256 µM in series [1] (setting [2]) and 2600 µM in series [1] (setting [3]). The inhibition at 10 µM in the series with PD-1 was > 50%. In the series with Phosphorylated eIF4E, the IC50 is 1 to 10 nM.

Consider `Cc1cc(Nc2ncnc(N)c2Cl)c(=O)n2c1C(=O)NC21CCN(C)CC1(C)C` (stereo not drawn) [Compound 3DD], for which the solubility at 18 h was 130 µM in series [1] (setting [2]) and 2100 µM in series [1] (setting [3]). In the series on PD-1, the inhibition at 10 µM is > 50%. For the same molecule, the IC50 in the series with Phosphorylated eIF4E was < 1 nM.

For `Cc1cc(Nc2ncnc(N)c2C)c(=O)n2c1C(=O)NC21CCN(CC2(F)CC2)CC1` [Compound 3HH], in series [1] (setting [2]), the solubility at 18 h is 18 µM. Besides, the inhibition at 10 µM with PD-1 is < 10%. Also, in the series on Phosphorylated eIF4E, the IC50 is 1 to 10 nM.

Regarding `Cc1cc(Nc2ncnc(N)c2Cl)c(=O)n2c1C(=O)N[C@]21CCCNC1` [Compound 3K], the “solubility … in words” value in series [1] was “excellent solubility”. Also, the solubility at 18 h in series [1] (setting [2]) was 158 µg/mL; in series [1] (setting [3]) it was 1530 µg/mL. The inhibition at 10 µM in the series on PD-1 was > 50%. In the series with Phosphorylated eIF4E, the IC50 was > 10 nM.

For the molecule `Cc1cc(Nc2ncnc(N)c2Cl)c(=O)n2c1C(=O)N[C@@]21CCCNC1` [Compound 3L], in series [1], the “solubility … in words” value is “excellent solubility”. In addition, the figures for the solubility at 18 h in series [1] (setting [2]) and in series [1] (setting [3]) were 70 µM and 3200 µM, respectively. Further, the inhibition at 10 µM with PD-1 was > 50%. The IC50 in the series on Phosphorylated eIF4E lay in the range of 1 to 10 nM.

For the molecule `Cc1cc(Nc2ncnc(N)c2Cl)c(=O)n2c1C(=O)NC21CNCCC1(C)C` (stereo not drawn) [Compound 3S], the results for the solubility at 18 h in series [1] (setting [2]) and in series [1] (setting [3]) were 600 µM and 4200 µM, respectively. For the same molecule, the inhibition at 10 µM with PD-1 is > 50%. Further, the IC50 with Phosphorylated eIF4E is 1 to 10 nM.

For `Cc1cc(Nc2ncnc(N)c2C)c(=O)n2c1C(=O)NC21CNCCC1(C)C` (stereo not drawn) [Compound 3T], the solubility at 18 h in series [1] (setting [2]) is 500 µM; in series [1] (setting [3]), 10000 µM. Besides, in the series on PD-1, the inhibition at 10 µM was 10 to 50%. The IC50 with Phosphorylated eIF4E is > 10 nM.
